Results reported in patent US4175125A, “Method for treating methicillin resistant staphylococcus aureus” (Eli Lilly and Company, priority 1978, dated 1979).
≈ marks a conversion by molar mass, not a printed value. Each block holds one molecule with its values, some of them ahead of it.

Tests used:
[1] = system: Staphylococcus aureus cultures; assay: Agar dilution susceptibility test, phenylthioacetyl cephalosporins vs methicillin resistant S. aureus (Example 9); assay type: cell-based; conditions: for MIC: Staphylococcus aureus, read-out: MIC; for effectiveness in in vitro tests vs methicillin, cephalothin and cephaloridine: various cultures of methicillin-resistant Staphylococcus aureus
From the text: This example compares the antibiotic activities of three known compounds, methicillin, cephalothin, and cephaloridine, with three compounds from the above examples, in terms of minimum inhibitory concentration (MIC) values in microgram/milliliter units against various isolates of Staphylococcus aureus cultures. The culture numbers and the procedures used to obtain the reported data are disclosed by W. E. Wick and D. A. Preston in their article "Heterogeneous Methicillin-Resistant Staphylococcus Aureus" which appeared in Progress in Antimicrobial And Anticancer Chemotherapy, Proceedings of the 6th International Congress of Chemotherapy, Volume, 1, U. of Tokyo Press, Tokyo, (1970). In these agardilution susceptibility tests, the inocula were diluted to 10^3 bacteria per spot. Cultures 3055 (benzylpenicillin sensitive) and H232 (benzylpenicillin-resistant) are controls. The remaining cultures are methicillin-resistant, and, except for 3136, are clinical isolates. Culture 3136 is a 4th transfer laboratory selected mutant.

[2] = system: Staphylococcus aureus cultures; assay: Broth dilution MIC in trypticase soy broth, low and high NaCl (Example 10); assay type: cell-based; conditions: Staphylococcus aureus, TSB, read-out: MIC
Method: This example compares the antibiotic activities of methicillin, cephalothin and cephaloridine with the compounds of Examples 1, 2 and 3, in broth dilution tests. The MIC values, in μg/ml., are against the same Staphylococcus aureus cultures described in Example 9, except that in this example the cultures were grown in trypticase soy broth (TSB). Growing the cultures in two broth cultures, one having a low (0.5 percent) sodium chloride content and one having a high (5.0 percent) sodium chloride content is said to assist in identifying the methicillin-resistant cultures from those which are not methicillin-resistant. […] See Chabbert, Y. A., 1967 Postgrad. Med. J., 43 (suppl); 40-46. One expects that similar changes in MIC values for this type of culture to other β-lactam antibiotics, e.g., various penicillins and cephalosporins, to have similar implications. […] That is, methicillin-resistant S.aureus cultures are susceptible to the cephalosporin antibiotics used in this invention.

[3] = culture 3055 (control, benzylpenicillin sensitive), table part marked b
[4] = culture 3055 (control, benzylpenicillin sensitive), table part marked c
[5] = culture 3130, table part marked b
[6] = culture 3130, table part marked c
[7] = culture 3131, table part marked b
[8] = culture 3131, table part marked c
[9] = culture 3132, table part marked b
[10] = culture 3132, table part marked c
[11] = culture 3133, table part marked b
[12] = culture 3133, table part marked c
[13] = culture 3134, table part marked b
[14] = culture 3134, table part marked c
[15] = culture 3135, table part marked b
[16] = culture 3135, table part marked c
[17] = culture 3136, table part marked b
[18] = culture 3136, table part marked c
[19] = culture 3137, table part marked b
[20] = culture 3137, table part marked c
[21] = culture 3138, table part marked b
[22] = culture 3138, table part marked c
[23] = culture 3139, table part marked b
[24] = culture 3139, table part marked c
[25] = culture (Seattle) 966, table part marked b
[26] = culture (Seattle) 966, table part marked c
[27] = culture H232 (control, benzylpenicillin-resistant), table part marked b
[28] = culture H232 (control, benzylpenicillin-resistant), table part marked c
[29] = culture Kavarmark 1138501, table part marked b
[30] = culture Kavarmark 1138501, table part marked c
[31] = culture S61, table part marked b
[32] = culture S61, table part marked c
[33] = culture 3055 (control), table part marked b
[34] = culture 3055 (control), table part marked c
[35] = culture 3132 (first column so headed), table part marked b
[36] = culture 3132 (first column so headed), table part marked c
[37] = culture 3132 (second column so headed), table part marked b
[38] = culture 3132 (second column so headed), table part marked c
[39] = culture H232 (control), table part marked b
[40] = culture H232 (control), table part marked c
[41] = culture Kavarnick 1138501, table part marked b
[42] = culture Kavarnick 1138501, table part marked c

MIC [1, 3]: < 0.06 µg/mL
MIC [1, 4]: < 0.06 µg/mL
MIC [1, 5]: 0.5 µg/mL (≈ 1.02 µM)
MIC [1, 6]: 1 µg/mL (≈ 2.04 µM)
MIC [1, 7]: 1 µg/mL (≈ 2.04 µM)
MIC [1, 8]: 1 µg/mL (≈ 2.04 µM)
MIC [1, 9]: 0.5 µg/mL (≈ 1.02 µM)
MIC [1, 10]: 0.25 µg/mL (≈ 0.509 µM)
MIC [1, 11]: 0.5 µg/mL (≈ 1.02 µM)
MIC [1, 12]: 1 µg/mL (≈ 2.04 µM)
MIC [1, 13]: 1 µg/mL (≈ 2.04 µM)
MIC [1, 14]: 0.5 µg/mL (≈ 1.02 µM)
MIC [1, 15]: 0.5 µg/mL (≈ 1.02 µM)
MIC [1, 16]: 0.25 µg/mL (≈ 0.509 µM)
MIC [1, 17]: 0.5 µg/mL (≈ 1.02 µM)
MIC [1, 18]: 0.5 µg/mL (≈ 1.02 µM)
MIC [1, 19]: 2 µg/mL (≈ 4.07 µM)
MIC [1, 20]: 2 µg/mL (≈ 4.07 µM)
MIC [1, 21]: 1 µg/mL (≈ 2.04 µM)
MIC [1, 22]: 0.5 µg/mL (≈ 1.02 µM)
MIC [1, 23]: 1 µg/mL (≈ 2.04 µM)
MIC [1, 24]: 0.25 µg/mL (≈ 0.509 µM)
MIC [1, 25]: 0.5 µg/mL (≈ 1.02 µM)
MIC [1, 26]: 0.25 µg/mL (≈ 0.509 µM)
MIC [1, 27]: < 0.06 µg/mL
MIC [1, 28]: < 0.06 µg/mL
MIC [1, 29]: 0.5 µg/mL (≈ 1.02 µM)
MIC [1, 30]: 0.5 µg/mL (≈ 1.02 µM)
MIC [1, 31]: 0.5 µg/mL (≈ 1.02 µM)
MIC [1, 32]: 1 µg/mL (≈ 2.04 µM)
MIC [2, 33]: 0.06 µg/mL (≈ 0.122 µM)
MIC [2, 34]: 0.06 µg/mL (≈ 0.122 µM)
MIC [2, 5]: 0.5 µg/mL (≈ 1.02 µM)
MIC [2, 6]: 4 µg/mL (≈ 8.14 µM)
MIC [2, 7]: 1 µg/mL (≈ 2.04 µM)
MIC [2, 8]: 2 µg/mL (≈ 4.07 µM)
MIC [2, 35]: < 0.5 µg/mL
MIC [2, 36]: 2 µg/mL (≈ 4.07 µM)
MIC [2, 37]: < 0.5 µg/mL
MIC [2, 38]: 2 µg/mL (≈ 4.07 µM)
MIC [2, 13]: 1 µg/mL (≈ 2.04 µM)
MIC [2, 14]: 4 µg/mL (≈ 8.14 µM)
MIC [2, 15]: < 0.5 µg/mL
MIC [2, 16]: 2 µg/mL (≈ 4.07 µM)
MIC [2, 17]: 0.5 µg/mL (≈ 1.02 µM)
MIC [2, 18]: 2 µg/mL (≈ 4.07 µM)
MIC [2, 19]: 2 µg/mL (≈ 4.07 µM)
MIC [2, 20]: 4 µg/mL (≈ 8.14 µM)
MIC [2, 21]: 1 µg/mL (≈ 2.04 µM)
MIC [2, 22]: 1 µg/mL (≈ 2.04 µM)
MIC [2, 23]: 1 µg/mL (≈ 2.04 µM)
MIC [2, 24]: 1 µg/mL (≈ 2.04 µM)
MIC [2, 25]: 0.5 µg/mL (≈ 1.02 µM)
MIC [2, 26]: 2 µg/mL (≈ 4.07 µM)
MIC [2, 39]: 0.12 µg/mL (≈ 0.244 µM)
MIC [2, 40]: 0.25 µg/mL (≈ 0.509 µM)
MIC [2, 41]: 0.5 µg/mL (≈ 1.02 µM)
MIC [2, 42]: 2 µg/mL (≈ 4.07 µM)
MIC [2, 31]: 2 µg/mL (≈ 4.07 µM)
MIC [2, 32]: 2 µg/mL (≈ 4.07 µM)
MIC ([2]; culture S, table part marked b): 2 µg/mL (≈ 4.07 µM)
MIC ([2]; culture S, table part marked c): 2 µg/mL (≈ 4.07 µM)
SMILES: CC(=O)OCC1=C(C(=O)O)N2C(=O)C(NC(=O)CSc3ccc(Cl)c(Cl)c3)C2SC1 (stereo not drawn) [Example 1, 7-(3,4-dichlorophenylthioacetamido)cephalosporanic acid]
effectiveness in in vitro tests vs methicillin, cephalothin and cephaloridine [1]: substantially more effective than methicillin, cephalothin, and cephaloridine

MIC [1, 3]: < 0.06 µg/mL
MIC [1, 4]: < 0.06 µg/mL
MIC [1, 5]: 0.5 µg/mL (≈ 1.02 µM)
MIC [1, 6]: 2 µg/mL (≈ 4.07 µM)
MIC [1, 7]: 0.5 µg/mL (≈ 1.02 µM)
MIC [1, 8]: 1 µg/mL (≈ 2.04 µM)
MIC [1, 9]: 0.5 µg/mL (≈ 1.02 µM)
MIC [1, 10]: 0.5 µg/mL (≈ 1.02 µM)
MIC [1, 11]: 1 µg/mL (≈ 2.04 µM)
MIC [1, 12]: 2 µg/mL (≈ 4.07 µM)
MIC [1, 13]: 1 µg/mL (≈ 2.04 µM)
MIC [1, 14]: 2 µg/mL (≈ 4.07 µM)
MIC [1, 15]: 0.5 µg/mL (≈ 1.02 µM)
MIC [1, 16]: 1 µg/mL (≈ 2.04 µM)
MIC [1, 17]: 0.5 µg/mL (≈ 1.02 µM)
MIC [1, 18]: 1 µg/mL (≈ 2.04 µM)
MIC [1, 19]: 2 µg/mL (≈ 4.07 µM)
MIC [1, 20]: 4 µg/mL (≈ 8.14 µM)
MIC [1, 21]: 1 µg/mL (≈ 2.04 µM)
MIC [1, 22]: 1 µg/mL (≈ 2.04 µM)
MIC [1, 23]: 1 µg/mL (≈ 2.04 µM)
MIC [1, 24]: 0.5 µg/mL (≈ 1.02 µM)
MIC [1, 25]: 0.5 µg/mL (≈ 1.02 µM)
MIC [1, 26]: 0.25 µg/mL (≈ 0.509 µM)
MIC [1, 27]: < 0.06 µg/mL
MIC [1, 28]: < 0.06 µg/mL
MIC [1, 29]: 0.5 µg/mL (≈ 1.02 µM)
MIC [1, 30]: 1 µg/mL (≈ 2.04 µM)
MIC [1, 31]: 0.5 µg/mL (≈ 1.02 µM)
MIC [1, 32]: 1 µg/mL (≈ 2.04 µM)
MIC [2, 33]: 0.06 µg/mL (≈ 0.122 µM)
MIC [2, 34]: 0.06 µg/mL (≈ 0.122 µM)
MIC [2, 5]: 1 µg/mL (≈ 2.04 µM)
MIC [2, 6]: 8 µg/mL (≈ 16.3 µM)
MIC [2, 7]: < 0.5 µg/mL
MIC [2, 8]: 2 µg/mL (≈ 4.07 µM)
MIC [2, 35]: < 0.5 µg/mL
MIC [2, 36]: 2 µg/mL (≈ 4.07 µM)
MIC [2, 37]: < 0.5 µg/mL
MIC [2, 38]: 2 µg/mL (≈ 4.07 µM)
MIC [2, 13]: 2 µg/mL (≈ 4.07 µM)
MIC [2, 14]: 4 µg/mL (≈ 8.14 µM)
MIC [2, 15]: < 0.5 µg/mL
MIC [2, 16]: 2 µg/mL (≈ 4.07 µM)
MIC [2, 17]: 0.25 µg/mL (≈ 0.509 µM)
MIC [2, 18]: 4 µg/mL (≈ 8.14 µM)
MIC [2, 19]: 2 µg/mL (≈ 4.07 µM)
MIC [2, 20]: 4 µg/mL (≈ 8.14 µM)
MIC [2, 21]: 2 µg/mL (≈ 4.07 µM)
MIC [2, 22]: 2 µg/mL (≈ 4.07 µM)
MIC [2, 23]: 0.5 µg/mL (≈ 1.02 µM)
MIC [2, 24]: < 0.5 µg/mL
MIC [2, 25]: 0.5 µg/mL (≈ 1.02 µM)
MIC [2, 26]: 2 µg/mL (≈ 4.07 µM)
MIC [2, 39]: 0.12 µg/mL (≈ 0.244 µM)
MIC [2, 40]: 0.25 µg/mL (≈ 0.509 µM)
MIC [2, 41]: 0.5 µg/mL (≈ 1.02 µM)
MIC [2, 42]: 2 µg/mL (≈ 4.07 µM)
MIC [2, 31]: 0.5 µg/mL (≈ 1.02 µM)
MIC [2, 32]: 2 µg/mL (≈ 4.07 µM)
MIC ([2]; culture S, table part marked b): 0.5 µg/mL (≈ 1.02 µM)
MIC ([2]; culture S, table part marked c): 2 µg/mL (≈ 4.07 µM)
SMILES: CC(=O)OCC1=C(C(=O)O)N2C(=O)C(NC(=O)CSc3cc(Cl)ccc3Cl)C2SC1 (stereo not drawn) [Example 2, 7-(2,5-Dichlorophenylthioacetamido)-cephalosporanic acid]
effectiveness in in vitro tests vs methicillin, cephalothin and cephaloridine [1]: substantially more effective than methicillin, cephalothin, and cephaloridine
